Results: US20220370463A1, “STABILIZED C-FMS INTRACELLULAR FRAGMENTS (FICD) PROMOTE OSTEOCLAST DIFFERENTIATION AND ARTHRITIC BONE EROSION” (New York Society for the Relief of the Ruptured and …, priority 2019, published 2022)
“Also recorded” adds a separate entry of the source.

Key:
[1] = tested on: FICDs (c-FMS intracellular fragments); assay: FICD generation in M-CSF-cultured human CD14+ cells, immunoblot of whole lysates; type: cell-based; settings: BB94 10 uM for 2 days after 8 hours M-CSF (20 ng/ml)
Description: FIGS. 8A-8I show c-FMS expression in synovial macrophages. (A) The levels of M-CSF in synovial fluids from patients with rheumatoid arthritis (RA, n=13) and osteoarthritis (OA, n=8) were measured. (B) Mass spectrometry analysis for proteins from ˜50 kDa bands (red box) identified c-FMS as one of top genes. An image of coomassie blue stained genes showing immunoprecipitated cells lysates with either anti-DDK-tag antibodies or IgG control. (C-G) Human CD14+ cells were cultured with M-CSF (20ng/ml). Immunoblot of c-FMS with different antibodies against C-terminal of c-FMS; (C) C-20, (D) D-8, and (E) #3152. Immunoblot of c-FMS with different antibodies against N-terminal of c-FMS; (F) #61701, (G) H-300. (H-I) Human CD14+ cells were cultured with M-CSF (20 ng/ml) for 8 hours to induce early signals, and then BB94 (10 uM) was added for 2 days. (H) Immunoblot with anti c-FMS and α-tubulin antibodies in whole lysates (n=3). (I) Soluble c-FMS was detected by ELISA (n=3). […] All data are shown as mean±SEM. *; p<0.05 significant by two-tailed, paired t-test (A and I). M: mature form, I: immature form, H: hgh mass, L: low mass.
FIGS. 10A-10F show calpain regulates FICD generation. (A and B) Human CD14+ cells were cultured with M-CSF (20 ng/ml) for 8 hours to induce early signals and then (A) MDL 28170(0, 1, 2, 5 uM) or (B) PD150606 (0, 2, 5 uM) was added for 2 days. […]

[2] = tested on: soluble c-FMS (ectodomain shedding of c-FMS); assay: Soluble c-FMS in culture media of human CD14+ cells, ELISA; type: cell-based; settings: BB94 10 uM for 2 days after 8 hours M-CSF (20 ng/ml)
Description: FIGS. 8A-8I show c-FMS expression in synovial macrophages. (A) The levels of M-CSF in synovial fluids from patients with rheumatoid arthritis (RA, n=13) and osteoarthritis (OA, n=8) were measured. (B) Mass spectrometry analysis for proteins from ˜50 kDa bands (red box) identified c-FMS as one of top genes. An image of coomassie blue stained genes showing immunoprecipitated cells lysates with either anti-DDK-tag antibodies or IgG control. (C-G) Human CD14+ cells were cultured with M-CSF (20ng/ml). Immunoblot of c-FMS with different antibodies against C-terminal of c-FMS; (C) C-20, (D) D-8, and (E) #3152. Immunoblot of c-FMS with different antibodies against N-terminal of c-FMS; (F) #61701, (G) H-300. (H-I) Human CD14+ cells were cultured with M-CSF (20 ng/ml) for 8 hours to induce early signals, and then BB94 (10 uM) was added for 2 days. […] (I) Soluble c-FMS was detected by ELISA (n=3). […]
c-FMS and M-CSF in synovial fluids and the supernatants of cell culture was measured using sandwich ELISA kit (R&D Systems; DY329 and DY216) according to manufacturer's instructions. C-telopeptide of type I collagen (CTX-1) and Procollagen 1 N-Terminal Propeptide (P1NP) in Serum from WT and FICDtg^M mice were measured using RatLapstm EIA kit (Immunodiagnostic Systems; AC-06F1) or P1NP-ELISA kit (Cloud-Clone corp; SEA957Mu) according to the manufacturer's instructions.

[3] = tested on: osteoclastogenesis; settings: inhibiting proteosomal degradation; cited from earlier work
[4] = tested on: NFATc1; assay: RANKL-induced NFATc1 expression in human OCPs (immunoblot, qPCR); type: cell-based
Description: (a and b) BMDMs from WT and FICDtg^M mice was stimulated with RANKL (50 ng/ml) at the indicated time. (a) RT-qPCR of Nfatc1 mRNA normalized relative to Hprt mRNA. (b) Immunoblot with anti NFATc1, HA, or α-tubulin antibodies. (c and d) BMDMs from Csf1r^f/+ Mx1-Cre mice were transduced by lentiviruses encoding FMS^wt, or FMS^mut and then cultured with M-CSF and RANKL. (c) Immunoblot of whole lysate with anti-NFATc1 antibody. α-tubulin was used as a control. […] The intensity of NFATc1 in FMS^mut was set as 100%. (d) Expression mRNA level of NFATc1. (e) Immunoblot of whole cell lysates with phospho-eIF4E antibodies. HA-tagged FICD was detected by HA-antibody. α-tubulin was used as a control. […] (f and g) Human CD14+ cells were treated with CGP57380 at the indicated doses for one hour and cultured with RANKL for one day. […] (g) Nfatc1 mRNA expression was measured by qPCR relative to HPRT. A DMSO-treated RANKL condition was set as 100%. […]
(§1) Whole cell extracts were prepared by lysis in buffer containing 1× Lamin sample buffer (Bio-rad) and 2-Mercaptoethanol (Sigma) or RIPA buffer (Sigma). […] The protein concentration of nuclear extracts was quantitated using the Bradford assay (Bio-Rad; 5000001). For immunoblot, proteins were separated on 7.5 or 10% SDS-PAGE gels, transferred to polyvinylidene difluoride membranes (PVDF, Millipore; ISEQ00010), and detected by antibodies as listed in the figure legends.

[5] = tested on: NFATc1; assay: RANKL-induced NFATc1 expression in mouse OCPs (immunoblot, qPCR); type: cell-based
Description: (A and B) BMDMs from WT and FICDtg^M mice were cultured with RANKL for 24 hours. Immunoblot of whole cell lysates with phopho-p70S6K and phopho-4E-BP1 antibodies. HA-tagged FICDs were detected by HA-antibody. α-tubulin or P38 was used as a control. (C) BMDMs from female wild type LysM cre mice (WT) or RAPTORf/f-LysM cre mice (Raptor cKO) were cultured with M-CSF for 4 days and were stimulated with RANKL for the indicated days. Immunoblot of whole cell lysates with anti-Raptor, NFATc1, or α-tubulin antibodies. (D-F) BMDMs from WT mice were treated with CPG57380 at the indicated doses and then cultured with RANKL for one day. (D) Immunoblot of whole lysate with anti-NFATc1 antibody. α-tubulin was used as a control. […] The intensity of NFATc1 bands in RANKL treatment conditions (control) was set as 100%. (n=4) (E) Expression mRNA level of NFATc1. […]
as §1

[6] = tested on: BMDM cells; assay: Mouse osteoclastogenesis assay in BMDMs (TRAP-positive multinuclear cells); type: cell-based
Description: (a and b) BMDMs from WT and FICDtg^M mice was stimulated with RANKL (50 ng/ml) at the indicated time. (a) RT-qPCR of Nfatc1 mRNA normalized relative to Hprt mRNA. (b) Immunoblot with anti NFATc1, HA, or α-tubulin antibodies. (c and d) BMDMs from Csf1r^f/+ Mx1-Cre mice were transduced by lentiviruses encoding FMS^wt, or FMS^mut and then cultured with M-CSF and RANKL. (c) Immunoblot of whole lysate with anti-NFATc1 antibody. α-tubulin was used as a control. […] The intensity of NFATc1 in FMS^mut was set as 100%. (d) Expression mRNA level of NFATc1. (e) Immunoblot of whole cell lysates with phospho-eIF4E antibodies. HA-tagged FICD was detected by HA-antibody. α-tubulin was used as a control. […] (f and g) Human CD14+ cells were treated with CGP57380 at the indicated doses for one hour and cultured with RANKL for one day. […] (g) Nfatc1 mRNA expression was measured by qPCR relative to HPRT. A DMSO-treated RANKL condition was set as 100%. (h) Osteoclastogenesis assay. […]
(A and B) BMDMs from WT and FICDtg^M mice were cultured with RANKL for 24 hours. […] HA-tagged FICDs were detected by HA-antibody. α-tubulin or P38 was used as a control. […]
For human osteoclastogenesis assays, cells were added to 96 well plates in triplicate at a seeding density of 5×10^4 cells per well. […] Multinucleated (greater than 3 nuclei), TRAP-positive osteoclasts were counted in triplicate wells. […]

[7] = tested on: BMDMs from WT and FICDtg^M mice; assay: Cell viability assay in BMDMs; type: cell-based, mouse; settings: CGP57380 at the indicated doses for one day
Description: (a and b) BMDMs from WT and FICDtg^M mice was stimulated with RANKL (50 ng/ml) at the indicated time. (a) RT-qPCR of Nfatc1 mRNA normalized relative to Hprt mRNA. (b) Immunoblot with anti NFATc1, HA, or α-tubulin antibodies. (c and d) BMDMs from Csf1r^f/+ Mx1-Cre mice were transduced by lentiviruses encoding FMS^wt, or FMS^mut and then cultured with M-CSF and RANKL. (c) Immunoblot of whole lysate with anti-NFATc1 antibody. α-tubulin was used as a control. […] The intensity of NFATc1 in FMS^mut was set as 100%. (d) Expression mRNA level of NFATc1. (e) Immunoblot of whole cell lysates with phospho-eIF4E antibodies. HA-tagged FICD was detected by HA-antibody. α-tubulin was used as a control. […] (f and g) Human CD14+ cells were treated with CGP57380 at the indicated doses for one hour and cultured with RANKL for one day. […] (g) Nfatc1 mRNA expression was measured by qPCR relative to HPRT. A DMSO-treated RANKL condition was set as 100%. (h) Osteoclastogenesis assay. BMDMs from WT and FICDtg^M mice were treated with CPG57380 at the indicated doses and then cultured with RANKL for three days. […] Scale bar: 100 μm. (i) Cell viability assay. BMDMs WT and FICDtg^M mice was stimulated with CPG57380 at the indicated doses for one day. (j-n) K/BxN serum transfer induced arthritis model. 9-week old male C57BL/6J mice were received K/BxN serum on day 0 and day 2. […]

[8] = CGP57380, RANKL for one day, qPCR

CNC(=O)[C@H](Cc1ccccc1)NC(=O)[C@H](CC(C)C)[C@H](CSc1cccs1)C(=O)NO [BB94]
generation of FICDs [1]: suppressed the generation of FICDs | ectodomain shedding of c-FMS, soluble c-FMS in the media [2]: inhibited the ectodomain shedding of c-FMS; also recorded: inhibited the shedding of c-FMS and diminished soluble c-FMS in the media

CC(C)C[C@H](NC(=O)[C@H](Cc1ccccc1)NC(=O)c1cnccn1)B(O)O [bortezomib]
osteoclastogenesis [3]: suppresses osteoclastogenesis

Nc1ncnc2n[nH]c(Nc3ccc(F)cc3)c12 [CGP57380]
Nfatc1 mRNA expression [4, 8]: marginally changed | RANKL-induced NFATc1 protein expression ([4]; CGP57380 one hour, then RANKL for one day): suppressed RANKL-induced NFATc1 protein expression in a dose-dependent manner | Nfatc1 mRNA expression [5, 8]: marginally changed | RANKL-induced NFATc1 protein expression ([5]; CGP57380, then RANKL for one day): suppressed RANKL-induced NFATc1 protein expression in a dose-dependent manner | enhanced osteoclastogenesis in FICDtg^M cells ([6]; BMDMs from FICDtg^M mice, RANKL for three days): inhibited the enhanced osteoclastogenesis in FICDtg^M cells to become comparable to osteoclasts in WT cells | osteoclast differentiation ([6]; BMDMs from WT mice, RANKL for 3 days): suppressed osteoclast differentiation in a dose-dependent manner | cell viability [7]: minimal effect
